# From patent US10723764B2, “Anti-microbial peptides and methods of use thereof” (priority 2011, dated 2020)
# Where a SMILES comes first, the peptide text is derived from it. [ ]: non-standard residue; d: D form. Bip = N[C@@H](Cc1ccc(-c2ccccc2)cc1)C(=O)O
# Assays:
# [1] = tested on: ESKAPE pathogens; format: cell-based
# Procedure: (§1) The antibacterial activities of the peptides were determined using the standard broth microdilution method (Mishra et al. (2012) J. Am. Chem. Soc., 134:12426-12429; Wang et al. (2005) Biol. Chem., 280:5803-5811). Briefly, the bacterial culture was treated with a series of peptide solutions, each with two-fold dilution. After overnight incubation at 37° C., the microplate was read on a ChroMate® 4300 Microplate Reader at 630 nm (GMI, Ramsey, Minn.).
# A rational design was conducted on the basis of the 3D structure of GF-17d3. […] The noncoherent packing of the GF-17d3 side chains caused a hydrophobic defect in the structure (FIGS. 8C and 8D, arrow), leading to reduced hydrophobicity. Accordingly, it was hypothesized that the antimicrobial activity of this peptide 17F2 (sequence GX1KRLVQRLKDX2LRNLV (SEQ ID NO: 58), Table 9) could be enhanced by filling in the hydrophobic cavity (FIG. 8D, arrow) with a larger hydrophobic side chain. The antimicrobial activities of these peptide analogues were evaluated using the standard microdilution assays (Mishra et al. (2012) J. Am. Chem. Soc., 134:12426-12429), and the minimal inhibitory concentrations (MIC) against a panel of the ESKAPE pathogens are provided in Table 10. […] To compare the two sites, these two substitutions at positions X1 and X2 were swapped to obtain 17Naph-mF. […] In addition, biphenylalanines were incorporated at position X1 alone or at both X1 and X2 of the 17F2 template. […] The killing abilities of these peptides are essentially proportional to their MIC values as well as retention times (a measure of hydrophobicity) on a reverse-phase HPLC column (Mishra et al. (2012) J. Am. Chem. Soc., 134:12426-12429).
# [2] = biological target: fungal protease K (Parengyodontium album, UniProt P06873); assay: Peptide stability to fungal protease K by SDS-PAGE; format: in vitro ADME; conditions: peptide/protease 40:1, PBS pH 8, 37° C.
# Procedure: (§2) FIG. 10 provides a stability comparison of synthetic 17BIPHE2 with GF-17 in the presence of bovine chymotrypsin, porcine trypsin, S. aureus protease V8, and fungal protease K. Two samples were analyzed in this gel for each protease: 0 and 6 hours for GF-17 and 0 and 24 hours for 17BIPHE2.
# (§3) Peptide stability was evaluated based on a published protocol (Mishra et al. (2012) J. Am. Chem. Soc., 134:12426-12429) with one modification. Aliquots (10 μL) of the reaction solutions (peptide/protease molar ratio, 40:1) in 10 mM PBS buffer (pH 8) at 37° C. were taken at 0, 6, and 24 hours and immediately mixed with 10 μL of 2×SDS loading buffer followed by boiling for 5 minutes to stop the reaction. Samples were analyzed using 5% stacking/18% resolving tricine gel.
# [3] = tested on: A. baumannii B2367-12; format: cell-based, Acinetobacter baumanii
# Procedure: as §1
# [4] = biological target: chymotrypsin (Bos taurus, UniProt P00766); assay: Peptide stability to chymotrypsin by SDS-PAGE; format: in vitro ADME, bovine; conditions: during 4 hours
# Procedure: A solution (100 μl) of the peptide and 12.5 μM chymotrypsin (peptide/protein molar ratio, 40:1) in 10 mM PBS buffer (pH 8) was incubated at 37° C. Aliquots (10 μl) of the reaction solutions were taken at 0, 2, 4, and 22 hours and immediately mixed with 20 μl of 2×SDS loading buffer to stop the reaction. For the gel analysis, 10 μl of each sample was loaded to the well of a 5% stacking/18% resolving tricine gel. The samples in the lanes are: 1, protein marker; 2, temporin-PTa L-form at 0 hour; 3, 2 hours; 4, 4 hours; 5, 22 hours; 6, temporin-PTa D-form at 0 hour; 7, 2 hours; 8, 4 hours; 9, 22 hours. In the gel, the bands for the peptide and chymotrypsin were indicated with large and small arrows, respectively. Note that the peptide bands were not detected in lanes 3-5 due to protease cleavage but remained essentially constant in lanes 7-9.
# Peptide stability was evaluated using standard SDS-PAGE (described in FIG. 5).
# as §3
# [5] = tested on: Escherichia coli K12; conditions: Table 8
# [6] = tested on: E. faecium ATCC51559; format: cell-based, Enterococcus faecium; conditions: ATCC51559
# Procedure: as §1
# [7] = tested on: E. cloacae B2366-12; format: cell-based; conditions: B2366-12
# Procedure: as §1
# [8] = biological target: S. aureus V8 protease (Staphylococcus aureus, UniProt P0C1U8); format: in vitro ADME; conditions: peptide/protease 40:1, PBS pH 8, 37° C.
# Procedure: as §2, §3
# [9] = tested on: Pseudomonas aeruginosa PAO1; format: cell-based
# Procedure: The bacterial strains used in the study are Bacillus subtilis 168, methicillin-resistant Staphylococcus aureus USA300 LAC (Gram-positive), Escherichia coli K12, and Pseudomonas aeruginosa PAO1 (Gram negative). The antibacterial activities of the peptides were determined using the standard broth microdilution method (Wang et al. (2005) J. Biol. Chem., 280:5803-5811). In brief, the bacterial culture (90 μL) was treated with a series of peptide solutions (10 μL), each with two-fold dilution. After overnight incubation at 37° C., the microplate was read on a ChroMate® 4300 Microplate Reader at 630 nm (GMI, Ramsey, Minn.).
# For the initial screen, antimicrobial activities of these peptides against S. aureus and E. coli were evaluated using the standard broth microdilution protocol (Wang, G. (2008) J. Biol. Chem., 283:32637-43). […] Subsequently, the in vitro activity of these six peptides was evaluated against Bacillus subtilis and Pseudomonas aeruginosa (Table 6). […] While maculatin 1.3 is active against two Gram-positive but not two Gram-negative bacterial strains, DASamP1 is species-specific since it active only against S. aureus. The finding that ascaphin-8, […], and piscidin 1 are wide-spectrum AMPs agrees with the literature (Apponyi et al. (2004) Peptides 25:1035-1054; Conlon et al. (2004) Biochem. Biophys. Res. Commun., 320:170-175; Silphaduang et al. (2001) Nature 414:268-269; Souza et al. (2005) J. Immunol., 186:6585-6596). For lycotoxin I, it was previously found to active against Gram-negative E. coli and yeast (Yan et al. (1998) J. Biol. Chem., 273:2059-2066).
# as §1
# [10] = tested on: methicillin-resistant Staphylococcus aureus USA300 LAC
# Procedure: This was done by modifying the standard microdilution antimicrobial assays (Wang, G. (2008) J. Biol. Chem., 283:32637-32643). Specifically, the bacterial wells with a high peptide concentration (e.g. 100 μM) are duplicated (e.g., two for antimicrobial assays and two for protease stability assays). As an illustration, chymotrypsin was applied to the duplicated wells at a peptide:protease molar ratio of 25:1.
# [11] = tested on: human erythrocytes
# S. aureus V8 protease, sequence (P0C1U8 69-336): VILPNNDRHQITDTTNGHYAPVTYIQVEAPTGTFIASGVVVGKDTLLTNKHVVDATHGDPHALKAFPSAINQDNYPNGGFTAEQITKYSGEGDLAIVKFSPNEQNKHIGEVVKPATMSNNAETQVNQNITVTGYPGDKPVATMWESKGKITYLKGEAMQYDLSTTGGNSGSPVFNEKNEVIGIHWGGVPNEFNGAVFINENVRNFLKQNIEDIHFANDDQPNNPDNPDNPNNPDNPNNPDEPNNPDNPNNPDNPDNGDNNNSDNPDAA
# fungal protease K, sequence (P06873 106-384): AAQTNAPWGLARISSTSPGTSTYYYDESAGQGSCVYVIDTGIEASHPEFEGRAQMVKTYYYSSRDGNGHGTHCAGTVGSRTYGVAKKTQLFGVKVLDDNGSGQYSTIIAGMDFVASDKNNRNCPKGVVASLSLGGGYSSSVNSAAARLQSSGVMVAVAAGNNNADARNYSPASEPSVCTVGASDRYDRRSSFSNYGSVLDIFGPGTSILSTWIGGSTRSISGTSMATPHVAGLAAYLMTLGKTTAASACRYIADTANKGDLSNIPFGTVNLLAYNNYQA
smiles,measurement,setting,value
"CC(C)C[C@H](NC(=O)[C@H](CC(N)=O)NC(=O)[C@H](CCCNC(=N)N)NC(=O)[C@@H](CC(C)C)NC(=O)[C@H](Cc1ccc(-c2ccccc2)cc1)NC(=O)[C@H](CC(=O)O)NC(=O)[C@H](CCCCN)NC(=O)[C@@H](CC(C)C)NC(=O)[C@H](CCCNC(=N)N)NC(=O)[C@H](CCC(N)=O)NC(=O)[C@@H](NC(=O)[C@@H](CC(C)C)NC(=O)[C@H](CCCNC(=N)N)NC(=O)[C@H](CCCCN)NC(=O)[C@H](Cc1ccc(-c2ccccc2)cc1)NC(=O)CN)C(C)C)C(=O)N[C@H](C(N)=O)C(C)C [D128A, GX1KRLVQRLKDX2LRNLV-amide] (H-G[Bip]KR[dL]VQR[dL]KD[Bip][dL]RNLV-NH2)",MIC against all of the ESKAPE pathogens,[1],3.1 to 6.2 µM
same,time stable in the presence of fungal protease K,[2],at least 24 hours
same,MIC (μM) AB,[3],3.1 µM
same,level of intact peptide in the presence of chymotrypsin,[4],remained constant
same,E. coli K12 MIC,[5],2.5 µM
same,MIC (μM) EF,[6],3.1 µM
same,MIC (μM) EC,[7],3.1 µM
same,time stable in the presence of S. aureus V8 protease,[8],at least 24 hours
same,MIC (μM) PA,[9],6.2 µM
same,MIC (μM) SA,"[10]; S. aureus USA300 LAC, Table 10",3.1 µM
same,S. aureus USA 300 MIC,[10]; Table 8,5 µM
same,"HL50 (μM), peptide concentration at which 50% human red blood cells were lysed",[11]; Table 8,150 µM
same,"HL50 (μM), peptide concentration that causes 50% lysis of human erythrocytes",[11]; Table 10,225 µM
